Here are results for 5 compounds from patent publication US9029451B2, “Waterborne coating compositions that include 2,2,4-trimethyl-3-oxopentanoate esters as reactive coalescents” (Eastman Chemical Company, priority 2010, dated 2015).

Like-named read-outs stand apart in the source and are kept apart here.

Data set [1] can be described thus: MFFT testing, coalescing efficiency. The procedure:
The MFFT samples were prepared by weighing out 20 grams (+/−0.01 g) of emulsion into 50 ml beakers. The beakers of emulsion were placed on magnetic stirrers and the coalescing aid added dropwise by pipet. The weight of the drops were determined by adding 40 drops of the coalescing aid to a tared weighing dish, then the weight per drop was calculated by taking an average of the total weight (total weight divided by 40 drops). The coalescing aid was added to the emulsion based on solids by weight. The MFFT samples were allowed to stir for approximately 15 minutes, transferred to 8 dram vials and placed onto lab rollers and allowed to equilibrate for at least 24 hours. The samples were then drawn down on the MFFT bar, which is typically set on range #2 (0° to 18° C.), and the films allowed to dry. The areas in which the films have stopped cracking are visually determined and the MFFT value is read from the scale on the instrument and converted to degrees Fahrenheit. Linear Regression was used to calculate the amount of coalescing aid required to lower the films MFFT to 40° F. In Table #5, the phr40 values (parts per hundred resin based on solids by weight) are the amount of coalescing aid required to reduce the MFFT to 40° F. A lower number indicates the coalescent is more efficient at reducing the MFFT of the film.

Data set [2] is described as follows: % non-volatile, 110° C. for 1 hour (ASTM D2369). In kind it is physicochemical. The procedure: 2,2,4-trimethyl-3-oxopentanoate esters useful as reactive coalescents according to the invention include those having a weight percent volatile content of less than 50%, as measured according to ASTM Method D2369. This test may be conducted generally by heating the sample in a forced air oven at 110° C. for 60 minutes. The weight loss after the test is deemed to result from a loss of volatiles originally present in the sample; the percent volatile present in the original sample may then be calculated. Although the cited test can be conducted on coating compositions containing other components such as latex polymers, the values cited herein may be obtained from a sample of the coalescent itself. Thus, the weight percent volatile of a coalescent may be used herein as a yardstick to measure the amount of VOC the coalescent would contribute to the VOC of a coating composition.

Data set [3] is described as follows: Boiling point of coalescent. In kind it is physicochemical. The procedure: The novel compounds were evaluated for their coalescing properties and compared to 2,2,4-trimethylpentane-1,3-diol monoisobutyrate (Texanol) and Optifilm Enhancer 400 (OE 400), two coalescents that are widely used in industry (Table 2).
Data set [4] is described as follows: Hydrolytic stability in latex at 120° F., pH and Brookfield viscosity. In kind it is physicochemical. To be noted: for hydrolytic stability, in words: Rhoplex AC 2508, compared with industry standards. The procedure: Approximately 100 grams of either Rhoplex AC 2508 (Rohm & Haas acrylic polymer emulsion) or Rhoplex SG-10M (Rohm & Haas acrylic polymer emulsion) was weighed out into a 4 ounce jar and 10 phr (parts per hundred resin) of the coalescing aid was added (based on percent solids of the emulsion by weight). The sample was placed on lab rollers for 24 hours before the initial pH and viscosity was taken. The viscosity was measured by a Brookfield viscometer in centipoises. The sample was then placed into a lab oven at 120° F. The pH and viscosity was checked weekly for four weeks (Tables 3 & 4). Any change in the appearance of the sample such as gel particles or phase separation was recorded weekly also.

The nature of data set [5]: Water miscibility, % water in solvent method (Karl Fischer). In kind it is physicochemical. The note with it: stirred approx. 48 hours. The procedure:
(§1) Water miscibility was measured by the following methods:
% Water in Solvent Method:
Approximately 5-10 mL of the novel coalescent was slowly added to 10-15 mL Milli-Q water in an 8-dram vial. The mixture was slowly stirred for approximately 48 hours at 100-150 rpm. The organic layer was analyzed in triplicate for percent water by Karl Fischer methodology.

Data set [6] can be described thus: Water miscibility, % organic in water method (gravimetric). In kind it is physicochemical. The note with it: saturation point. The procedure:
as §1
% Organic in Water Method:
The novel coalescent was added drop wise to 25 mL Milli-Q water and the mixture stirred at 1000 rpm for 10 minutes. If the coalescent dissolved, an additional drop or drops were added until traces of the organic solvent remained after the mixture had been stirred for 20 minutes. The percent organic solvent at the saturation point was determined gravimetrically.

A short description of data set [7]: Density, ASTM D 1475-98. In kind it is physicochemical.
Setting [8] is: latex Acronal 296D, linear regression.
[9] abbreviates: latex Rhoplex HG-74P, linear regression.
Where [10] appears, read: latex Rhoplex SG-10M, linear regression.
[11] abbreviates: latex Ucar 379G, linear regression.
Where [12] appears, read: latex Ucar 626, linear regression.
The mark [13] stands for this setting: Rhoplex AC 2508, 10 phr coalescent, Initial.
[14] abbreviates: Rhoplex AC 2508, 10 phr, 120° F., 1 week.
Setting [15] is: Rhoplex AC 2508, 10 phr, 120° F., 2 weeks.
Setting [16] is: Rhoplex AC 2508, 10 phr, 120° F., 3 weeks.
Where [17] appears, read: Rhoplex AC 2508, 10 phr, 120° F., 4 weeks.
The mark [18] stands for this setting: Rhoplex SG-10M, 10 phr coalescent, Initial.
Setting [19] is: Rhoplex SG-10M, 10 phr, 120° F., 1 week.
[20] abbreviates: Rhoplex SG-10M, 10 phr, 120° F., 2 weeks.
Where [21] appears, read: Rhoplex SG-10M, 10 phr, 120° F., 3 weeks.
The mark [22] stands for this setting: Rhoplex SG-10M, 10 phr, 120° F., 4 weeks.

Take “2,2,4-trimethylpentane-1,3-diol monoisobutyrate [Texanol, reference compound]”: the “phr of Coalescent required to lower MFFT to 40° F.” value (“phr … to lower MFFT to 40° F.” for short) in data set [1] (setting [8]) is on record as 4.7 phr; in data set [1] (setting [9]), 8.3 phr; in data set [1] (setting [10]) it was 4.6 phr; in data set [1] (setting [11]), 0.1 phr; in data set [1] (setting [12]), 6.2 phr. Further, the “% non-volatile @ 110° C. for 1 hour” value in data set [2] is 0.0%. In data set [3] (@ 760 torr), the “Boiling Point (° C. @ 760 torr)” value was 255.0 °C. In addition, the “Viscosity (cps)” value in data set [4] (setting [13]) was 905 cps; in data set [4] (setting [14]), 685 cps; in data set [4] (setting [15]) it was 665 cps; in data set [4] (setting [16]), 631 cps; in data set [4] (setting [17]), 638 cps; in data set [4] (setting [18]), 544 cps. The “Viscosity (cps)” value amounted to 554 cps in data set [4] (setting [19]), 484 cps in data set [4] (setting [20]), 474 cps in data set [4] (setting [21]) and 471 cps in data set [4] (setting [22]). Besides, the pH in data set [4] (setting [13]) is 8.2; in data set [4] (setting [14]), 7.9; in data set [4] (setting [15]), 8.0; in data set [4] (setting [16]) it was 7.8; in data set [4] (setting [17]), 7.9; in data set [4] (setting [18]) it was 8.7. In addition, the pH in data set [4] (setting [19]) worked out at 8.5; in data set [4] (setting [20]), 8.8; in data set [4] (setting [21]), 8.6; in data set [4] (setting [22]) it was 8.3. The “Water Miscibility % water in solvent layer” value (“Water Miscibility % water” below) in data set [5] turned out to be 3.0%. Also, the “Water Miscibility % solvent in water layer” value (shortened to “Water Miscibility % solvent”) in data set [6] was found to be 0.1%. Moreover, the “Density (lbs/gal)” value in data set [7] is recorded as 7.92 lbs/gal.
For `CC(C)C(=O)C(C)(C)C(=O)OCCO` [Example 1, 2-Hydroxyethyl 2,2,4-trimethyl-3-oxopentanoate], the “phr … to lower MFFT to 40° F.” value in data set [1] (setting [8]) is reported as 4.2 phr; in data set [1] (setting [9]), 8.2 phr; in data set [1] (setting [10]), 4.7 phr; in data set [1] (setting [11]) it was 1.5 phr; in data set [1] (setting [12]), 6.5 phr. Besides, the “% non-volatile @ 110° C. for 1 hour” value in data set [2] is 10.6%. For the same compound, the “Boiling Point (° C. @ 760 torr)” value in data set [3] came to 254.8 °C. In addition, the “Viscosity (cps)” value was 1430 cps in data set [4] (setting [13]); 1360 cps in data set [4] (setting [14]); 1150 cps in data set [4] (setting [15]); 1060 cps in data set [4] (setting [16]); 1070 cps in data set [4] (setting [17]). The pH came to 8.3 in data set [4] (setting [13]); 7.7 in data set [4] (setting [14]); 7.7 in data set [4] (setting [15]); 7.6 in data set [4] (setting [16]); 7.4 in data set [4] (setting [17]). The “Water Miscibility % water” value in data set [5] is reported as 7.6%. For the same compound, in data set [6], the “Water Miscibility % solvent” value turned out to be 5.0%. Further, the “Density (lbs/gal)” value in data set [7] was determined as 8.75 lbs/gal.
In the case of `CC(C)C(=O)C(C)(C)C(=O)OCC(C)(C)CO` [Example 2, 3-Hydroxy-2,2-dimethylpropyl 2,2,4-trimethyl-3-oxopentanoate], the “phr … to lower MFFT to 40° F.” value is given as 5.9 phr in data set [1] (setting [8]); 8.8 phr in data set [1] (setting [9]); 5.6 phr in data set [1] (setting [10]); 1.6 phr in data set [1] (setting [11]); 6.4 phr in data set [1] (setting [12]). Besides, the “% non-volatile @ 110° C. for 1 hour” value in data set [2] was determined as 47.9%. In data set [3], the “Boiling Point (° C. @ 760 torr)” value turned out to be 291.2 °C. Further, the “Viscosity (cps)” value in data set [4] (setting [13]) amounted to 1510 cps; in data set [4] (setting [14]) it was 1260 cps; in data set [4] (setting [15]) it was 1230 cps; in data set [4] (setting [16]) it was 1220 cps; in data set [4] (setting [17]) it was 1130 cps. The pH in data set [4] (setting [13]) was 8.5; in data set [4] (setting [14]), 8.4; in data set [4] (setting [15]), 8.4; in data set [4] (setting [16]) it was 8.3; in data set [4] (setting [17]) it was 8.3. Besides, in data set [4], the “hydrolytic stability, in words” value was “better than the industry standards”. Besides, in data set [5], the “Water Miscibility % water” value came to 4.0%. Besides, the “Water Miscibility % solvent” value in data set [6] came to 0.09%. The “Density (lbs/gal)” value in data set [7] was 8.34 lbs/gal.
For the compound `CC(C)C(=O)C(C)(C)C(=O)OCC(C)(C)C(O)C(C)C` (stereo not drawn) [Example 3, 3-Hydroxy-2,2,4-trimethylpentyl 2,2,4-trimethyl-3-oxopentanoate], the “phr … to lower MFFT to 40° F.” value turned out to be 6.0 phr in data set [1] (setting [8]); 9.7 phr in data set [1] (setting [9]); 5.6 phr in data set [1] (setting [10]); 1.3 phr in data set [1] (setting [11]); 8.2 phr in data set [1] (setting [12]). Moreover, the “% non-volatile @ 110° C. for 1 hour” value in data set [2] was determined as 63.8%. Moreover, the “Boiling Point (° C. @ 760 torr)” value in data set [3] came to 287.7 °C. The “Viscosity (cps)” value in data set [4] (setting [13]) stood at 1430 cps; in data set [4] (setting [14]) it was 1300 cps; in data set [4] (setting [15]), 1290 cps; in data set [4] (setting [16]), 1250 cps; in data set [4] (setting [17]), 1130 cps. The pH in data set [4] (setting [13]) stood at 8.5; in data set [4] (setting [14]), 8.4; in data set [4] (setting [15]), 8.4; in data set [4] (setting [16]), 8.4; in data set [4] (setting [17]) it was 8.3. In addition, the “hydrolytic stability, in words” value in data set [4] is given as “better than the industry standards”. Further, in data set [5], the “Water Miscibility % water” value was 2.1%. Moreover, the “Water Miscibility % solvent” value in data set [6] is reported as 0.07%. Besides, the “Density (lbs/gal)” value in data set [7] is listed as 8.13 lbs/gal.
Take `CC(C)C(=O)C(C)(C)C(=O)OCCOCCOCCOC(=O)C(C)(C)C(=O)C(C)C` [Example 4]: the “phr … to lower MFFT to 40° F.” value in data set [1] (setting [8]) worked out at 5.8 phr; in data set [1] (setting [9]), 9.1 phr; in data set [1] (setting [10]) it was 6.7 phr; in data set [1] (setting [11]) it was 1.3 phr; in data set [1] (setting [12]), 7.0 phr. Besides, in data set [2], the “% non-volatile @ 110° C. for 1 hour” value was found to be 99.0%. Moreover, the “volatility, in words” value in data set [2] (compared with Texanol) is reported as “almost completely nonvolatile”. Further, the “Boiling Point (° C. @ 760 torr)” value in data set [3] turned out to be 320.0 °C. The “Viscosity (cps)” value in data set [4] (setting [13]) was determined as 1380 cps; in data set [4] (setting [14]), 1200 cps; in data set [4] (setting [15]), 1210 cps; in data set [4] (setting [16]), 1150 cps; in data set [4] (setting [17]) it was 1100 cps. Moreover, the pH in data set [4] (setting [13]) is reported as 8.4; in data set [4] (setting [14]) it was 8.3; in data set [4] (setting [15]), 8.2; in data set [4] (setting [16]), 8.3; in data set [4] (setting [17]), 8.2. In addition, the “hydrolytic stability, in words” value in data set [4] is listed as “better than the industry standards”. Besides, the “Water Miscibility % water” value in data set [5] worked out at 0.01%. Besides, the “Water Miscibility % solvent” value in data set [6] is given as 0.09%. Also, the “Density (lbs/gal)” value in data set [7] turned out to be 8.82 lbs/gal.
